The structures appear in SMILES notation. Activity calls are given as the source filed them.

Common to all, as to format: functional
Assay [1] addresses T1, Sentrin-specific protease 7 (Homo sapiens, UniProt Q9BQF6).
T1 sequence (Q9BQF6 whole entry): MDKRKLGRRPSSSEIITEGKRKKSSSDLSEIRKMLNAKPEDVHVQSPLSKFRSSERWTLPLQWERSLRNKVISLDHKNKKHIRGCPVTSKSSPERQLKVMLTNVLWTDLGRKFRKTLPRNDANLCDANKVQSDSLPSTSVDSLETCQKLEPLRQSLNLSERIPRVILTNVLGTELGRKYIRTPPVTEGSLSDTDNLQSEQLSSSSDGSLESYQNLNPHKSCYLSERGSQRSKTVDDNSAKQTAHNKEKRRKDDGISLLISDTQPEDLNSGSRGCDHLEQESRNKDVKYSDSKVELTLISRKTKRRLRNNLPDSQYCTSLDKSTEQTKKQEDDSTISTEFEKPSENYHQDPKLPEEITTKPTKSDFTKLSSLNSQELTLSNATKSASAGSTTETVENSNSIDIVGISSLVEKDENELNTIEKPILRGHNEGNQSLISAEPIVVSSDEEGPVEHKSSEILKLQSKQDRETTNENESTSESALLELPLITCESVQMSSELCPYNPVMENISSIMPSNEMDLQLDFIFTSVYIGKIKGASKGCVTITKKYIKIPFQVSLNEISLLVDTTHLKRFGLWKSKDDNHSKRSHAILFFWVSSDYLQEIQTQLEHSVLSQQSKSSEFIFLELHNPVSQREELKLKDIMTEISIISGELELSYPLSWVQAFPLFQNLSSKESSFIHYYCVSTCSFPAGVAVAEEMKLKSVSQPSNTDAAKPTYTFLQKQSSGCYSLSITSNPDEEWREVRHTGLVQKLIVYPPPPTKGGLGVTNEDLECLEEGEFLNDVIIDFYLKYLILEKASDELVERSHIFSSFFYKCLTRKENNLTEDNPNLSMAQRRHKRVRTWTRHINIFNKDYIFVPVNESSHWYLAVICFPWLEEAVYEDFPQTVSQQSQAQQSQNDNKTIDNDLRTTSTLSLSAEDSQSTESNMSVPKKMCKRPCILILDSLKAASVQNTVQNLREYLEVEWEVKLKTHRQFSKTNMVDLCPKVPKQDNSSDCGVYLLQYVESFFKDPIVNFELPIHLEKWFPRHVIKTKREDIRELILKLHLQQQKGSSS

In assay [2] the target is cAMP-dependent protein kinase catalytic subunit alpha (Homo sapiens, UniProt P17612).
For assay [3], the target named is Mitogen-activated protein kinase kinase kinase kinase 5 (Homo sapiens, UniProt Q9Y4K4).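 Also: measured as one member of a kinome-spanning kinase panel.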
Sequence of Mitogen-activated protein kinase kinase kinase kinase 5 (Q9Y4K4 whole entry): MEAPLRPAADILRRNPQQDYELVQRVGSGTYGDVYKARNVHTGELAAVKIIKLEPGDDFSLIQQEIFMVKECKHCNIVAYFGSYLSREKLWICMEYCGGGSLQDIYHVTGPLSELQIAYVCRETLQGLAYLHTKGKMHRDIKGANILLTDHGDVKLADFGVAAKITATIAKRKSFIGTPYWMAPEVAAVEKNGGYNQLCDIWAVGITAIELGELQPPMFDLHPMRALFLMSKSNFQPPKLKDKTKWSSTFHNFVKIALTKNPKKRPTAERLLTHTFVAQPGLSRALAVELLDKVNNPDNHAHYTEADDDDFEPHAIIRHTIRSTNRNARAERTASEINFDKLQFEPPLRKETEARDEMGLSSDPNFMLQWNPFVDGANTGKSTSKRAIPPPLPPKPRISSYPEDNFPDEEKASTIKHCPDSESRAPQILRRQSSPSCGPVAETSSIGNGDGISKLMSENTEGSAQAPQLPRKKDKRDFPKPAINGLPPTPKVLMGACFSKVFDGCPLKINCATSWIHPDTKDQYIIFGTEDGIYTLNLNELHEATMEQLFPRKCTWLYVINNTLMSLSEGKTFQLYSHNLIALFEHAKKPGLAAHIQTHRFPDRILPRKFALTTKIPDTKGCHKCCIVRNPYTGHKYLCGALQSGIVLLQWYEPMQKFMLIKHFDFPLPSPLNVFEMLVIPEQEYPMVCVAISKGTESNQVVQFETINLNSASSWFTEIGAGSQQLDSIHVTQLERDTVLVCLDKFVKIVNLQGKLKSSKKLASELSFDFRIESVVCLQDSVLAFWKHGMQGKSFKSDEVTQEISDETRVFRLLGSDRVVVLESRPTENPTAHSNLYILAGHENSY
Assay [4] has as its target Homeodomain-interacting protein kinase 4 (Homo sapiens, UniProt Q8NE63).
Assay [5] has as its target Aurora kinase B (Homo sapiens, UniProt Q96GD4).
The target of assay [6] is Tyrosine-protein phosphatase non-receptor type 22 (Homo sapiens, UniProt Q9Y2R2).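 Also: confirmatory dose-response retesting of primary uHTS hits against LYP; potency is for inhibition of phosphatase activity.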
Sequence of Tyrosine-protein phosphatase non-receptor type 22 (Q9Y2R2 whole entry): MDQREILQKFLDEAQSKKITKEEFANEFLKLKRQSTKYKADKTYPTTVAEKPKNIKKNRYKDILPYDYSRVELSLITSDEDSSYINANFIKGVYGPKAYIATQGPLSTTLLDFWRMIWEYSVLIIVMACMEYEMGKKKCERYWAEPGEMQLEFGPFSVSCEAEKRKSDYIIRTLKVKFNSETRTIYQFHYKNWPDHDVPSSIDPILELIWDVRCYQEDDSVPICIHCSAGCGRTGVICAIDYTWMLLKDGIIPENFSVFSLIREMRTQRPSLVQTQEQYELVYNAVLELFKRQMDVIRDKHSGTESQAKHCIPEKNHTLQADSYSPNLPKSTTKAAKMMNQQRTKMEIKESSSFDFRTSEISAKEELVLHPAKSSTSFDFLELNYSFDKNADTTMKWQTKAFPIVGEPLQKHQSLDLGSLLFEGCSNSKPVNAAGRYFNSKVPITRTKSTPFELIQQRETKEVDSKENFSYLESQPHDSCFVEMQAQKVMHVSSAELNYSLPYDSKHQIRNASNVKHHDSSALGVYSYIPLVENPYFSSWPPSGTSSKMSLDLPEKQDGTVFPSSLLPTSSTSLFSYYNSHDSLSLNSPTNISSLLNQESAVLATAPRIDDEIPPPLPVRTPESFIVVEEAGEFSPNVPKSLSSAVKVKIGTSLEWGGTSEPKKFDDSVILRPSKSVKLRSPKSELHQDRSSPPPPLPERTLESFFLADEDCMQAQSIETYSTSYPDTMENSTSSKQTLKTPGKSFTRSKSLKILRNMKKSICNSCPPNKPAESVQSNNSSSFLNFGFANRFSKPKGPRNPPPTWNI
Assay [7] is described as follows: NIH-3T3 fibroblast cytotoxicity, dose response, cytotoxicity control, cell-based, fluorescence, Alamar Blue, secondary assay (AID 2327).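 Also: NIH-3T3 mouse fibroblasts cultured with fluconazole at 8 µg/mL.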
Assay [8] deals with T2, Replicative DNA helicase DnaB (Mycobacterium tuberculosis, UniProt P9WMR3).
T2 sequence (P9WMR3 whole entry): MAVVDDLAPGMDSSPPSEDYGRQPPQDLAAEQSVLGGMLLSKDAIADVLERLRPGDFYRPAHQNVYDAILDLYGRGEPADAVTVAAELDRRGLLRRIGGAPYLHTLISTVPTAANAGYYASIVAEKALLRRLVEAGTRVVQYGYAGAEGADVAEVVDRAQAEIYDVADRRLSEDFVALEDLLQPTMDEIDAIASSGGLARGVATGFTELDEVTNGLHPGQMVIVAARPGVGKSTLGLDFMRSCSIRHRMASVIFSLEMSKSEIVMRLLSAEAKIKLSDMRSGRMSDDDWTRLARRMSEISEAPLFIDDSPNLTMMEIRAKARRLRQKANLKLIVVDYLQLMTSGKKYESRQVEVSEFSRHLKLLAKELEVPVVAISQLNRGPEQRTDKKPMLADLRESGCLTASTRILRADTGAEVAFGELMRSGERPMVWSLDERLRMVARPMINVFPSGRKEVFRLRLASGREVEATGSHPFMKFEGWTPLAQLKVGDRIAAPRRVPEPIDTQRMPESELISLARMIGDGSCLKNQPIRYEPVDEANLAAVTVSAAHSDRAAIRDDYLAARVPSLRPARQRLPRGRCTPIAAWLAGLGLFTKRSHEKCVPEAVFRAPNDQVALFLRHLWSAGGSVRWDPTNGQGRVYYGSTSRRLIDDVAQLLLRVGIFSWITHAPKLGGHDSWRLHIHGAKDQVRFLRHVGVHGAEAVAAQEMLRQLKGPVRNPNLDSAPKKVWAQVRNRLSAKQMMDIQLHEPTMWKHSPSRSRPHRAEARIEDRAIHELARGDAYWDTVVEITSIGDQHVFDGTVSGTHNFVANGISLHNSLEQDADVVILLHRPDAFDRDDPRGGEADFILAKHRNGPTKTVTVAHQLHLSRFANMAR
The assay can be described thus: DnaB intein splicing inhibitors, dose response, biochemical, cell-free fluorescence (AID 449749).

Sequence of Homeodomain-interacting protein kinase 4 (Q8NE63 whole entry): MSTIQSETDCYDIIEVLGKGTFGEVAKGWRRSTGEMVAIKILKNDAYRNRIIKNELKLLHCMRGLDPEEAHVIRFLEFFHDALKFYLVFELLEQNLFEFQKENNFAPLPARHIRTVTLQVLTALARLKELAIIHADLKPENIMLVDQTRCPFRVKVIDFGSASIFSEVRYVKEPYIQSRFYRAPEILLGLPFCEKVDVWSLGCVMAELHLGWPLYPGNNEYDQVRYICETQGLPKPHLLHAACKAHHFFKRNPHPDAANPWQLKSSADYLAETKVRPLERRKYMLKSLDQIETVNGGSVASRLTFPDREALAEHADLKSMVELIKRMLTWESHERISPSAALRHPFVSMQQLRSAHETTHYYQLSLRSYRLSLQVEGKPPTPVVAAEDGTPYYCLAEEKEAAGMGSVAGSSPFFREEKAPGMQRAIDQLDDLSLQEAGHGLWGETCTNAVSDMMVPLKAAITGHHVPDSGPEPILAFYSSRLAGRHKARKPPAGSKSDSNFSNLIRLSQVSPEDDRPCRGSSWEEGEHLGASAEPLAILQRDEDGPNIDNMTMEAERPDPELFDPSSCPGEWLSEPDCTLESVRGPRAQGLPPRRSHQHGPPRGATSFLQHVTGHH
Sequence of Aurora kinase B (Q96GD4 whole entry): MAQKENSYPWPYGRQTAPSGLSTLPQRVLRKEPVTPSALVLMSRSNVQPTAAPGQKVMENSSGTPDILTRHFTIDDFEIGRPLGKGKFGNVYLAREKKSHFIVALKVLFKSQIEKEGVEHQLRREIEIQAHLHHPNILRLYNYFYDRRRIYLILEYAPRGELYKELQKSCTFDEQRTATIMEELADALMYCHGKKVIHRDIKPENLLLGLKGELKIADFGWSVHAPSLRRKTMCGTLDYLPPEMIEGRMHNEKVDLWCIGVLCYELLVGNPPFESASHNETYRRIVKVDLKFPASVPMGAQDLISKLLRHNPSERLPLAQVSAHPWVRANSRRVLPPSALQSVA

As to `CC(C)c1ccc(-c2nnn(CCC(=O)O)n2)cc1`, the IC50 in assay [1] is 7.22 µM (active).

Take `COc1cc2c(cc1Nc1nc(Nc3cccc(F)c3C(N)=O)c3cc[nH]c3n1)N(C(=O)CN(C)C)CC2`: the Ki in assay [2] is > 1.26 µM (inactive); in assay [3] it was > 7.94 µM (inactive); in assay [4] it was 6.31 µM (active); in assay [5], > 3.98 µM (inactive).

For `CCn1nc(/C=C/c2ccccc2)nc2c(=O)n(C)c(=O)nc1-2`, the IC50 in assay [6] was 13 µM (active). In addition, in assay [7], the EC50 is 0.952 µM (inconclusive). Moreover, the AC50 in assay [8] was 0.487 µM (active).

The term IC50 denotes the concentration that gives 50% inhibition. The term Ki denotes a dissociation constant, usually derived from enzyme kinetics or from competition with a known ligand. Broadly, the EC50 is the concentration that produces a half-maximal response. For orientation: AC50 means the concentration at which the activity in the assay is half-maximal.
